The values below come from BindingDB's records for doi:10.1016/j.bmc.2009.04.013 (Biocryst Pharmaceuticals, 2009).

In the first test the target is T1, Coagulation factor VII (Homo sapiens, UniProt P08709).
T1 sequence (P08709 whole entry): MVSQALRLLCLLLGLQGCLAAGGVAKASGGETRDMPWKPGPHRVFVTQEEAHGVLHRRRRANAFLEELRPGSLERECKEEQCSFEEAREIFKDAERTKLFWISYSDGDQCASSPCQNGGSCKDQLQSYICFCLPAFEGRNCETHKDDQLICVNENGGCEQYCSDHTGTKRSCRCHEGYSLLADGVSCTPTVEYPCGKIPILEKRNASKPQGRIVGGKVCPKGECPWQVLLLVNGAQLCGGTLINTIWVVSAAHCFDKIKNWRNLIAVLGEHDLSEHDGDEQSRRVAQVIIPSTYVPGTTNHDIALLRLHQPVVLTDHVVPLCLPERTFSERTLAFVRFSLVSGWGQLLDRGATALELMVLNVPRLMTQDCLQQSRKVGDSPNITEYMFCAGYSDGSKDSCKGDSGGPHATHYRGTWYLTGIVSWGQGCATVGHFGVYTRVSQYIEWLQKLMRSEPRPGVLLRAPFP
Briefly: TF-FVIIa Enzyme Inhibition Assay. The note with it: 25 °C.
`N=C(N)c1ccc(NC(=O)c2ccccc2-c2ccccc2C(=O)O)cc1` [substituted biphenyl derivative, 9] registered an IC50 of 5720 nM. This counts as single-digit micromolar.

The test is the same for the next values; noted with them: pH 7.2; 23 °C.
As to `CC(C)CNC(=O)c1ccc(-c2ccc(/C=C\CO)cc2C(=O)Nc2ccc(C(=N)N)cc2)c(C(=O)O)c1` [substituted biphenyl derivative, 36m], the IC50 amounted to 52 nM.

The next test concerns the target T2, Serine protease 1 (Bos taurus, UniProt P00760).
T2 sequence (P00760 whole entry): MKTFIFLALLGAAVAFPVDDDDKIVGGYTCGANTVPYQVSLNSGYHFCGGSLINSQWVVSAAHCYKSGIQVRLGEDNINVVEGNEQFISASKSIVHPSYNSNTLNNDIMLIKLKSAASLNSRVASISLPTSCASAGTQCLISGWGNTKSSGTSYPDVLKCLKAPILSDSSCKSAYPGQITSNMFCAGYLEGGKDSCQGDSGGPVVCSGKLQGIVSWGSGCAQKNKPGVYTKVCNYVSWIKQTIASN
Briefly: TF-FVIIa Enzyme Inhibition Assay. The note with it: 25 °C.
`CC(C)CNC(=O)c1ccc(-c2ccccc2C(=O)Nc2ccc(C(=N)N)cc2)c(C(=O)O)c1` returned an IC50 of 170 nM. This counts as sub-micromolar.

On to `COc1ccc(-c2ccc(C(=O)NCC(C)C)cc2C(=O)O)c(C(=O)Nc2ccc(C(=N)N)cc2)c1` [substituted biphenyl derivative, 24], for which the IC50 is 820 nM.

Regarding `CC(C)CNC(=O)c1ccc(-c2ccc(O)cc2C(=O)Nc2ccc(C(=N)N)cc2)c(C(=O)O)c1` [substituted biphenyl derivative, 36a], the IC50 was 390 nM.

Compound `CC(C)CNC(=O)c1ccc(-c2ccc(-c3ccsc3)cc2C(=O)Nc2ccc(C(=N)N)cc2)c(C(=O)O)c1` [substituted biphenyl derivative, 36aa] came in with an IC50 of 380 nM.

Consider `CC(C)CNC(=O)c1ccc(-c2ccc(-c3ccco3)cc2C(=O)Nc2ccc(C(=N)N)cc2)c(C(=O)O)c1` [substituted biphenyl derivative, 36ab], for which the IC50 is 370 nM.

`CC(C)CNC(=O)c1ccc(-c2ccc(-c3ccoc3)cc2C(=O)Nc2ccc(C(=N)N)cc2)c(C(=O)O)c1` [substituted biphenyl derivative, 36ac] registered an IC50 of 470 nM.

`CC(C)CNC(=O)c1ccc(-c2ccc(-c3ccc[nH]3)cc2C(=O)Nc2ccc(C(=N)N)cc2)c(C(=O)O)c1` [substituted biphenyl derivative, 36ad] had an IC50 of 430 nM. This IC50 and that of the compound before are within 1.5-fold of each other.

For the compound `CC(C)CNC(=O)c1ccc(-c2ccc(-c3cccn3C)cc2C(=O)Nc2ccc(C(=N)N)cc2)c(C(=O)O)c1` [substituted biphenyl derivative, 36ae], half-maximal inhibition (IC50) was put at 410 nM. This IC50 and that of the compound before are within 1.5-fold of each other.

The compound `CC(C)CNC(=O)c1ccc(-c2ccc(-c3nccs3)cc2C(=O)Nc2ccc(C(=N)N)cc2)c(C(=O)O)c1` [substituted biphenyl derivative, 36af] gave an IC50 of 1470 nM.

Consider `CC(C)CNC(=O)c1ccc(-c2ccc(Cc3cccs3)cc2C(=O)Nc2ccc(C(=N)N)cc2)c(C(=O)O)c1` [substituted biphenyl derivative, 36ag], for which the IC50 came to 1510 nM.

Compound `CC(C)CNC(=O)c1ccc(-c2ccc(-c3ccsc3CO)cc2C(=O)Nc2ccc(C(=N)N)cc2)c(C(=O)O)c1` [substituted biphenyl derivative, 36ai] gave an IC50 of 3040 nM.

Compound `CC(C)CNC(=O)c1ccc(-c2ccc(-c3sccc3CO)cc2C(=O)Nc2ccc(C(=N)N)cc2)c(C(=O)O)c1` [substituted biphenyl derivative, 36aj] showed an IC50 of 4390 nM.

For `CC(C)CNC(=O)c1ccc(-c2ccc(-c3cscc3CO)cc2C(=O)Nc2ccc(C(=N)N)cc2)c(C(=O)O)c1` [substituted biphenyl derivative, 36ak], the IC50 turned out to be 510 nM.

As for `CC(C)CNC(=O)c1ccc(-c2ccc(-c3cscc3CN=[N+]=[N-])cc2C(=O)Nc2ccc(C(=N)N)cc2)c(C(=O)O)c1` [substituted biphenyl derivative, 36am], the IC50 is 1180 nM. Compared with the last compound, the IC50 is about 2.3-fold higher.

For `CC(C)CNC(=O)c1ccc(-c2ccc(-c3cscc3CN)cc2C(=O)Nc2ccc(C(=N)N)cc2)c(C(=O)O)c1` [substituted biphenyl derivative, 36an], the IC50 is 1770 nM. Against the preceding compound, the IC50 is about 1.5-fold higher.

For `CC(C)CNC(=O)c1ccc(-c2ccc(-c3ccoc3CO)cc2C(=O)Nc2ccc(C(=N)N)cc2)c(C(=O)O)c1` [substituted biphenyl derivative, 36ao], half-maximal inhibition (IC50) was put at 740 nM. Compared with the last compound, the IC50 is about 2.4-fold lower.

Consider `CC(C)CNC(=O)c1ccc(-c2ccc(-c3cocc3CO)cc2C(=O)Nc2ccc(C(=N)N)cc2)c(C(=O)O)c1` [substituted biphenyl derivative, 36ap], for which the IC50 worked out at 2290 nM. This IC50 is about 3.1-fold higher than that of the compound before.

On to `CC(C)CNC(=O)c1ccc(-c2ccc(-c3occc3CO)cc2C(=O)Nc2ccc(C(=N)N)cc2)c(C(=O)O)c1` [substituted biphenyl derivative, 36aq], for which the IC50 was determined as 770 nM. Compared with the last compound, the IC50 is about 3-fold lower.

In the case of `C=Cc1ccc(-c2ccc(C(=O)NCC(C)C)cc2C(=O)O)c(C(=O)Nc2ccc(C(=N)N)cc2)c1` [substituted biphenyl derivative, 36b], the midpoint of inhibition, the IC50, lay at 470 nM.

On to `CCc1ccc(-c2ccc(C(=O)NCC(C)C)cc2C(=O)O)c(C(=O)Nc2ccc(C(=N)N)cc2)c1` [substituted biphenyl derivative, 36c], for which the half-inhibitory concentration (IC50) came to 5990 nM.

`C#Cc1ccc(-c2ccc(C(=O)NCC(C)C)cc2C(=O)O)c(C(=O)Nc2ccc(C(=N)N)cc2)c1` [substituted biphenyl derivative, 36f]: the IC50 stood at 2870 nM.

Take `C=C(C)c1ccc(-c2ccc(C(=O)NCC(C)C)cc2C(=O)O)c(C(=O)Nc2ccc(C(=N)N)cc2)c1` [substituted biphenyl derivative, 36g]: the IC50 is 530 nM.

On to `C=C=Cc1ccc(-c2ccc(C(=O)NCC(C)C)cc2C(=O)O)c(C(=O)Nc2ccc(C(=N)N)cc2)c1` [substituted biphenyl derivative, 36h], for which inhibition was half-maximal at 560 nM (IC50). The IC50 values of the last two compounds are within 1.5-fold of each other.

For the compound `CC#Cc1ccc(-c2ccc(C(=O)NCC(C)C)cc2C(=O)O)c(C(=O)Nc2ccc(C(=N)N)cc2)c1` [substituted biphenyl derivative, 36i], it took 1660 nM to reach half-maximal inhibition (IC50). Compared with the last compound, the IC50 is about 3-fold higher.

`C/C=C\Cc1ccc(-c2ccc(C(=O)NCC(C)C)cc2C(=O)O)c(C(=O)Nc2ccc(C(=N)N)cc2)c1` [substituted biphenyl derivative, 36j] registered an IC50 of 1340 nM.

`CC(C)=CCc1ccc(-c2ccc(C(=O)NCC(C)C)cc2C(=O)O)c(C(=O)Nc2ccc(C(=N)N)cc2)c1` [substituted biphenyl derivative, 36k] returned an IC50 of 950 nM.

Consider `CC(C)CNC(=O)c1ccc(-c2ccc(/C=C\CO)cc2C(=O)Nc2ccc(C(=N)N)cc2)c(C(=O)O)c1` [substituted biphenyl derivative, 36m], for which the IC50 turned out to be 1770 nM.

`C=C(CO)c1ccc(-c2ccc(C(=O)NCC(C)C)cc2C(=O)O)c(C(=O)Nc2ccc(C(=N)N)cc2)c1` [substituted biphenyl derivative, 36n] returned an IC50 of 3540 nM. Against the preceding compound, the IC50 is about 2-fold higher.

The compound `C=C(CCO)c1ccc(-c2ccc(C(=O)NCC(C)C)cc2C(=O)O)c(C(=O)Nc2ccc(C(=N)N)cc2)c1` [substituted biphenyl derivative, 36o] showed an IC50 of 2190 nM. This IC50 is about 1.6-fold lower than that of the compound before.

As to `CC(C)CNC(=O)c1ccc(-c2ccc(C#CCCO)cc2C(=O)Nc2ccc(C(=N)N)cc2)c(C(=O)O)c1` [substituted biphenyl derivative, 36q], half-maximal inhibition (IC50) required 400 nM. This IC50 is about 5.5-fold lower than that of the compound before.

In turn, `CC(C)CNC(=O)c1ccc(-c2ccc(C(O)CO)cc2C(=O)Nc2ccc(C(=N)N)cc2)c(C(=O)O)c1` (stereo not drawn) [substituted biphenyl derivative, 36s] registered an IC50 of 22100 nM.

With `CC(C)CNC(=O)c1ccc(-c2ccc(-c3ccccc3)cc2C(=O)Nc2ccc(C(=N)N)cc2)c(C(=O)O)c1` [substituted biphenyl derivative, 36v], the IC50 worked out at 420 nM. This IC50 lies about 53-fold lower than the previous one.

`CC(C)CNC(=O)c1ccc(-c2ccc(Cc3ccccc3)cc2C(=O)Nc2ccc(C(=N)N)cc2)c(C(=O)O)c1` [substituted biphenyl derivative, 36w] displayed an IC50 of 570 nM.

`CC(C)CNC(=O)c1ccc(-c2ccc(-c3ccncc3)cc2C(=O)Nc2ccc(C(=N)N)cc2)c(C(=O)O)c1` [substituted biphenyl derivative, 36x]: half-maximal inhibition (IC50) was put at 1210 nM.

In the case of `CC(C)CNC(=O)c1ccc(-c2ccc(-c3cccnc3)cc2C(=O)Nc2ccc(C(=N)N)cc2)c(C(=O)O)c1` [substituted biphenyl derivative, 36y], the IC50 is 3020 nM.

`CC(C)CNC(=O)c1ccc(-c2ccc(-c3cccs3)cc2C(=O)Nc2ccc(C(=N)N)cc2)c(C(=O)O)c1` [substituted biphenyl derivative, 36z] gave an IC50 of 240 nM.

Usually IC50 stands for the concentration that gives 50% inhibition. A high value points to weaker potency in that assay.
